27 molecules from patent publication US9624229B2, “Pyrimidine-2-amine compounds and their use as inhibitors of JAK kinases” (Rigel Pharmaceuticals, Inc., priority 2008, dated 2017) can be followed below.

Ba/F3 V617F cells, sequence (O60674 whole entry V617F): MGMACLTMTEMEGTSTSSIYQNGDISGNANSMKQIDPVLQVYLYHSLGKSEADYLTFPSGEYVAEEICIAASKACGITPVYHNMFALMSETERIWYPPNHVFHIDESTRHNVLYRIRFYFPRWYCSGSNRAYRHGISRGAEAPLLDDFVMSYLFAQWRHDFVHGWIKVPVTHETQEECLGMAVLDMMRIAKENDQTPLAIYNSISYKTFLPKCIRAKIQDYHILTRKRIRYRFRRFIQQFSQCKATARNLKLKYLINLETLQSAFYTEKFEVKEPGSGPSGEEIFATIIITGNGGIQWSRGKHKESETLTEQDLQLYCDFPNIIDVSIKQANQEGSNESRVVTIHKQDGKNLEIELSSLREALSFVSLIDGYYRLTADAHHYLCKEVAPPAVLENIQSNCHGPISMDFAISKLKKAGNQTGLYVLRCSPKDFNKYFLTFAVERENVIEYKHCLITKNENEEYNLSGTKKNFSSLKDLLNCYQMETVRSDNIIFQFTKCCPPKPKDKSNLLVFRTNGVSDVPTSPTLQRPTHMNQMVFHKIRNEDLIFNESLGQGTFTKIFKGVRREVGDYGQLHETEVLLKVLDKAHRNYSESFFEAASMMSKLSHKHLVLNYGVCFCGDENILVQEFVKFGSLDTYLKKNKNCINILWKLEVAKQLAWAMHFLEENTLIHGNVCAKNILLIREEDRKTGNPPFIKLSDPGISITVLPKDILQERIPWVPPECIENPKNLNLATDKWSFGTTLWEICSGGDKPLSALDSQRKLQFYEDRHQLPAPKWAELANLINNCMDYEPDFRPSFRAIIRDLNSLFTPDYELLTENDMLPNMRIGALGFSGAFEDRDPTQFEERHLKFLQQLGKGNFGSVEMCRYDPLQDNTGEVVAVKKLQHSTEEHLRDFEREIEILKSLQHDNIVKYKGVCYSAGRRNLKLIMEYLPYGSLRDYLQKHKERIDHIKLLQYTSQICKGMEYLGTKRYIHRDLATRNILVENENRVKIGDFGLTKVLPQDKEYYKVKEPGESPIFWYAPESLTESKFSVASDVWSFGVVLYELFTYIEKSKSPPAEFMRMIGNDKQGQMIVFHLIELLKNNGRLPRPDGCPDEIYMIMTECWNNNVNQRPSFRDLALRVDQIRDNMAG

The first experiment has as its target Ba/F3 V617F cells (Homo sapiens, UniProt O60674, V617F, cells depend on it). The experiment is described as follows: Proliferation assay (Cell Titer-Glo, 72 h) utilizing Ba/F3 V617F cells. The format is cell-based, mouse. The following applies: Ba/F3 V617F cells, proliferation, level of activity given as class symbol, read-out: IC50 (the source's name). The method in brief:
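Readout is CellTiter-Glo luminescence after 72 h at 37 °C, giving IC50. Cells: Ba/F3 V617F, 1×10^5 cells/mL in RPMI with 10% FBS, treated in duplicate with 3-fold dilution series made from 5 mM DMSO stock, 1:250 in 5% FBS medium, added at 2×.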
Take `CCCNc1ccc(-c2ccnc(Nc3ccc(N4CC5(C)CN(C)CC(C)(C4)C5)c(C)c3)n2)cn1` [compound 213, 4-(6-(propylamino)pyridin-3-yl)-N-(3-methyl-4-(1,5,7-trimethyl-3,7-diazabicyclo[3.3.1]nonan-3-yl)phenyl)pyrimidin-2-amine]: the GI50 was under 1 µM.
Regarding `Cc1cc(Nc2nccc(-c3ccc4c(c3)CCCC(=O)N4)n2)ccc1N1C[C@@H]2C[C@H]1CN2S(C)(=O)=O` [compound 243, 4-(2-oxo-2,3,4,5-tetrahydro-1H-benzo[b]azepin-7-yl)-N-(3-methyl-4-((1S,4S)-5-methylsulfonyl-2,5-diazabicyclo[2.2.1]heptan-2-yl)phenyl)pyrimidin-2-amine], the GI50 was under 1 µM.
For `Cc1cc(Nc2nccc(-c3ccc(N4CCCOCC4)nc3)n2)ccc1N1C[C@@H]2C[C@H]1CO2` [compound 204, 4-(6-(1,4-oxazepan-4-yl)pyridin-3-yl)-N-(3-methyl-4-((1S,4S)-5-oxa-2-azabicyclo[2.2.1]heptan-2-yl)phenyl)pyrimidin-2-amine], the GI50 is under 1 µM.
With `Cc1cc(Nc2nccc(-c3ccc(N4CCOCC4)nc3)n2)ccc1N1C[C@@H]2C[C@H]1CN2S(C)(=O)=O` [compound 192, 4-(6-(morpholin-4-yl)pyridin-3-yl)-N-(3-methyl-4-((1S,4S)-5-methylsulfonyl-2,5-diazabicyclo[2.2.1]heptan-2-yl)phenyl)pyrimidin-2-amine], the GI50 was under 1 µM.
For the molecule `Cc1cc(Nc2nccc(-c3ccc(N4CCOCC4)nc3)n2)ccc1N1CCN2CC[C@H]1C2` [compound 277, 4-(6-(morpholin-4-yl)pyridin-3-yl)-N-(3-methyl-4-((S)-1,4-diazabicyclo[3.2.1]octan-4-yl)phenyl)pyrimidin-2-amine], the GI50 was under 1 µM.

The same experiment, now with this note: Ba/F3 V617F cells, proliferation, level of activity to inhibit JAK2, read-out: IC50 (the source's name).
In the case of `Cc1cc(Nc2nccc(-c3ccc(N4CCOCC4)nc3)n2)ccc1N1CCN2CCC1C2` (stereo not drawn) [compound 120, 4-(6-(morpholin-4-yl)pyridin-3-yl)-N-(3-methyl-4-(1,4-diazabicyclo[3.2.1]octan-4-yl)phenyl)pyrimidin-2-amine], the GI50 is under 1 µM.
As to `CCCNc1ncc(-c2ccnc(Nc3ccc(N4C[C@@H]5C[C@H]4CN5C)c(C)c3)n2)cn1` [compound 92, 4-(2-(propyl)aminopyrimidin-5-yl)-N-(3-methyl-4-((1S,4S)-5-methyl-2,5-diazabicyclo[2.2.1]heptan-2-yl)phenyl)pyrimidin-2-amine], the GI50 was under 1 µM.
Take `Cc1cc(Nc2nccc(-c3ccc(N4CCOCC4)nc3)n2)ccc1N1CCN2CCC1CC2` [compound 159, 4-(6-(morpholin-4-yl)pyridin-3-yl)-N-(3-methyl-4-(1,4-diazabicyclo[3.2.2]nonan-4-yl)phenyl)pyrimidin-2-amine]: the GI50 was under 1 µM.
`Cc1cc(Nc2nccc(-c3cnn(-c4ccc(F)cc4)c3)n2)ccc1N1C[C@@H]2C[C@H]1CN2C` [compound 109, 4-(1-(4-fluorophenyl)-1H-pyrazol-4-yl)-N-(3-methyl-4-((1S,4S)-5-methyl-2,5-diazabicyclo[2.2.1]heptan-2-yl)phenyl)pyrimidin-2-amine]: the GI50 was under 1 µM.
Take `Cc1cnc(Nc2ccc(N3C[C@@H]4C[C@H]3CN4C)c(F)c2)nc1-c1ccc(N2CCOCC2)nc1` [compound 68, 5-methyl-4-(6-(morpholin-4-yl)pyridin-3-yl)-N-(3-fluoro-4-((1S,4S)-5-methyl-2,5-diazabicyclo[2.2.1]heptan-2-yl)phenyl)pyrimidin-2-amine]: the GI50 was under 1 µM.
Consider `Cc1cc(Nc2nccc(-c3ccc(N4CCOCC4)nc3)n2)ccc1N1CC2(C)CN(C)CC(C)(C1)C2` [compound 75, 4-(6-(morpholin-4-yl)pyridin-3-yl)-N-(3-methyl-4-(1,5,7-trimethyl-3,7-diazabicyclo[3.3.1]nonan-3-yl)phenyl)pyrimidin-2-amine], for which the GI50 is under 1 µM.
For the molecule `CN(C)c1ccc(-c2ccnc(Nc3ccc(N4C[C@@H]5C[C@H]4CN5C)c(C(F)(F)F)c3)n2)cn1` [compound 96, 4-(6-(dimethylamino)pyridin-3-yl)-N-(3-trifluoromethyl-4-((1S,4S)-5-methyl-2,5-diazabicyclo[2.2.1]heptan-2-yl)phenyl)pyrimidin-2-amine], the GI50 was under 1 µM.
With `Cc1cc(Nc2nccc(-c3ccc(N4CCOCC4)nc3)n2)ccc1N1CC2CCC(C1)N2C` [compound 166, 4-(6-(morpholin-4-yl)pyridin-3-yl)-N-(3-methyl-4-(8-methyl-3,8-diazabicyclo[3.2.1]octan-3-yl)phenyl)pyrimidin-2-amine], the GI50 was under 1 µM.
In the case of `CC(=O)N1C[C@@H]2C[C@H]1CN2c1ccc(Nc2nccc(-c3ccc(N4CCOCC4)nc3)n2)cc1C#N` [compound 116, 4-(6-(morpholin-4-yl)pyridin-3-yl)-N-(3-cyano-4-((1S,4S)-5-acetyl-2,5-diazabicyclo[2.2.1]heptan-2-yl)phenyl)pyrimidin-2-amine], the GI50 was under 1 µM.
For the molecule `CN(C)c1nc(-c2ccnc(Nc3ccc(N4C[C@@H]5C[C@H]4CN5C)c(F)c3)n2)cs1` [compound 176, 4-(2-(dimethylamino)thiazol-4-yl)-N-(3-fluoro-4-((1S,4S)-5-methyl-2,5-diazabicyclo[2.2.1]heptan-2-yl)phenyl)pyrimidin-2-amine], the GI50 lay within 1 to 10 µM.
On to `CN1C[C@@H]2C[C@H]1CN2c1ccc(Nc2nccc(-c3ccc(N4CCOCC4)nc3)n2)cc1` [compound 184, 4-(6-(morpholin-4-yl)pyridin-3-yl)-N-(4-((1S,4S)-5-methyl-2,5-diazabicyclo[2.2.1]heptan-2-yl)phenyl)pyrimidin-2-amine], for which the GI50 was under 1 µM.
Same read-out and setting: under `N#Cc1cc(Nc2nccc(-c3ccc(N4CCOCC4)nc3)n2)ccc1N1C[C@@H]2C[C@H]1CN2C1CCCC1` [compound 119, 4-(6-(morpholin-4-yl)pyridin-3-yl)-N-(3-cyano-4-((1S,4S)-5-cyclopentyl-2,5-diazabicyclo[2.2.1]heptan-2-yl)phenyl)pyrimidin-2-amine] stands under 1 µM; under `CN1C[C@@H]2C[C@H]1CN2c1ccc(Nc2nccc(-c3cncc(S(C)(=O)=O)c3)n2)cc1C(F)(F)F` [compound 102, 4-(5-(methyl)sulfonylpyridin-3-yl)-N-(3-trifluoromethyl-4-((1S,4S)-5-methyl-2,5-diazabicyclo[2.2.1]heptan-2-yl)phenyl)pyrimidin-2-amine], under 1 µM.
Regarding `CCN1C[C@@H]2C[C@H]1CN2c1ccc(Nc2nccc(-c3cnc4c(c3)OC(C)(C)C(=O)N4)n2)cc1C` [compound 30, 4-(2,2-dimethyl-3-oxo-3,4-dihydro-2H-pyrido[3,2-b][1,4]oxazin-7-yl)-N-(3-methyl-4-((1S,4S)-5-ethyl-2,5-diazabicyclo[2.2.1]heptan-2-yl)phenyl)pyrimidin-2-amine], the GI50 is under 1 µM.
With `COc1ccc2cc(-c3ccnc(Nc4ccc(N5C[C@@H]6C[C@H]5CN6C)c(C)c4)n3)[nH]c2c1` [compound 105, 4-(6-methoxy-1H-indol-2-yl)-N-(3-methyl-4-((1S,4S)-5-methyl-2,5-diazabicyclo[2.2.1]heptan-2-yl)phenyl)pyrimidin-2-amine], the GI50 was under 1 µM.
On the same count and under the same terms, under `CN1C[C@@H]2C[C@H]1CN2c1ccc(Nc2nccc(-c3cnc4c(c3)OCCN4)n2)cc1C(F)(F)F` [compound 98, 4-(3,4-dihydro-2H-pyrido[3,2-b][1,4]oxazin-7-yl)-N-(3-trifluoromethyl-4-((1S,4S)-5-methyl-2,5-diazabicyclo[2.2.1]heptan-2-yl)phenyl)pyrimidin-2-amine] stands under 1 µM; under `CN1C[C@@H]2C[C@H]1CN2c1ccc(Nc2nccc(-c3ccc(N4CCOCC4)cc3)n2)cc1F` [compound 47, 4-(4-(morpholin-4-yl)phenyl)-N-(3-fluoro-4-((1S,4S)-5-methyl-2,5-diazabicyclo[2.2.1]heptan-2-yl)phenyl)pyrimidin-2-amine], 1 to 10 µM.

Still in this experiment, the particulars now being: inhibition of JAK2 activity, proliferation of Ba/F3 V617F cells, read-out: IC50 (the source's name).
Consider `CN(C)c1ccc(-c2ccnc(Nc3ccc(N4C[C@@H]5C[C@H]4CN5C)nc3)n2)cn1` [compound 54, 4-(6-(dimethylamino)pyridin-3-yl)-N-(6-((1S,4S)-5-methyl-2,5-diazabicyclo[2.2.1]heptan-2-yl)pyridin-3-yl)pyrimidin-2-amine], for which the GI50 lay in the range of 1 to 10 µM.
On to `Cc1cc(Nc2nccc(-c3ccc(N(C)C)nc3)n2)cnc1N1C[C@@H]2C[C@H]1CN2C` [compound 61, 4-(6-(dimethylamino)pyridin-3-yl)-N-(5-methyl-6-((1S,4S)-5-methyl-2,5-diazabicyclo[2.2.1]heptan-2-yl)pyridin-3-yl)pyrimidin-2-amine], for which the GI50 is under 1 µM.
The same measure, in the same setting: under `CC(=O)N1CCN(c2ccc(-c3ccnc(Nc4ccc(N5C[C@@H]6C[C@H]5CN6C)nc4)n3)cn2)CC1` [compound 57, 4-(6-(4-acetylpiperazin-1-yl)pyridin-3-yl)-N-(6-((1S,4S)-5-methyl-2,5-diazabicyclo[2.2.1]heptan-2-yl)pyridin-3-yl)pyrimidin-2-amine] stands 1 to 10 µM; under `Cc1cc(-c2ccnc(Nc3ccc(N4C[C@@H]5C[C@H]4CN5C)nc3)n2)cnc1N1CCOCC1` [compound 58, 4-(5-methyl-6-(morpholin-4-yl)pyridin-3-yl)-N-(6-((1S,4S)-5-methyl-2,5-diazabicyclo[2.2.1]heptan-2-yl)pyridin-3-yl)pyrimidin-2-amine], 1 to 10 µM.
Regarding `CC(=O)Nc1ccc(-c2ccnc(Nc3cnc(N4C[C@@H]5C[C@H]4CN5C)c(C)c3)n2)cn1` [compound 146, 4-(6-(acetamido)pyridin-3-yl)-N-(5-methyl-6-((1S,4S)-5-methyl-2,5-diazabicyclo[2.2.1]heptan-2-yl)pyridin-3-yl)pyrimidin-2-amine], the GI50 lay within 1 to 10 µM.
